Results as given in paper PMC7617869, “Molecular glues that inhibit deubiquitylase activity and inflammatory signaling” (Nature Structural & Molecular Biology, 2025).
“And” between values parts separate entries of the source, which are not always exact repeats. Equal values may be shown once.

Legend:
[1] = test system: IFNAR1 cell surface levels in sgROSA MCF10A cells; test: MCF10A sgROSA IFNAR1 cell surface levels (FACS); type: cell-based, human
Experimental: (§1) To study the direct effect of BRISC DUB inhibitors, IFNAR1 surface levels were measured using flow cytometry (FACS) analysis. For this purpose, MCF10A WT and MCF10A BRCC45 KO cells expressing […]
(§2) BRCC45 WT or BRCC45 R137A were used. […]
(§3) minutes prior to the addition of 50 ng/mL of hIFN-Iα for various time points (45 minutes and 90 minutes).
(§4) After IFN treatment, cells were dissociated from plate using cell dissociation Buffer (ThermoFisher Scientific, #13150016) and were stained with LIVE/DEAD™ Fixable Violet Dead Cell Stain Kit, for 405 nm excitation (ThermoFisher Scientific, #L34963) for 30 minutes, as per the kit protocol. The cells were then washed using FACS buffer (DPBS, 1% BSA, 2 mM EDTA, 0.09% sodium azide) and transferred to 96-well round bottom plates. Resuspended cells were divided into three repeats for each sample, each was surface stained for 1 hour at 4 °C with: 1. Human IFN-alpha/beta R1 Antibody (R&D systems, #MAB245), 2. Mouse IgG1 Isotype Control (R&D systems, #MAB002), 3. FACS buffer (control cells).
(§5) Following incubation, cells were washed once with FACS buffer and were labelled for 30 minutes at 4 °C with either Biotin-SP-conjugated AffiniPure Donkey Anti-Mouse IgG (H+L) (Jackson Immunoresearch Laboratories) for samples 1 and 2 or with FACS buffer for sample 3. Cells were washed twice with FACS buffer and were labelled for 15 minutes at 4 °C with either R-Phycoerythrin-conjugated Streptavidin (Jackson Immunoresearch Laboratories) for samples 1 and 2 or with FACS buffer for sample 3. Cells were washed 3 times with FACS buffer and were analysed by FACS (MACSQuant, Miltenyi Biotec). For each sample from group 1 the Geo mean fluorescence intensity (MFI) of its isotype sample was reduced. IFNAR1 cell surface percentage was calculated by 100*(MFI

[2] = test system: IFNAR1 cell surface levels in MCF10A BRCC45 R137A cells; test: MCF10A BRCC45 R137A IFNAR1 cell surface levels (FACS); type: cell-based, human; conditions: for IFNAR1 cell surface levels (Fig. 5g): BRCC45 KO + BRCC45 R137A, IFN + compound, No IFN about 100; for IFNAR1 cell surface levels: BRCC45 R137A cells, IFN 50 ng/ml, 5 μM, 90 min
Experimental: as §1, §2, §3, §4, §5

[3] = test system: THP-1 cells; test: THP-1 live cell percentage; type: cell-based; conditions: THP-1, hIFNα2 25 ng/mL, 4 μM compound, 16 h
Experimental: (§6) THP-1 in vitro experiments
(§7) THP-1-DualTM cells (InvivoGen), derived from a human monocytic cell line, isolated from a patient with acute monocytic leukaemia, were cultured as per manufacturer’s guidance. Cells were seeded at 1x10^6 cells/mL in RPMI1640 media containing 10% fetal bovine serum (FBS), 1% penicillin-streptomycin (PS) (Gibco Laboratories) with DMSO (0.1%) (control) or in media containing JMS-175- […]
(§8) ng/mL) (Merck Life Science), ODN 2216 (1 µM) (Miltenyi Biotec), or Poly:IC (1 µg/mL) (InvivoGen).
(§9) Tofacitinib (Cambridge Biosciences) at 0.4 µM was used for comparison against a known JAK inhibitor.
(§10) Cells were centrifuged at 300 g for 5 minutes. Supernatant was removed and subjected to simultaneous study of the NF -κB pathway, by monitoring the activity of secreted alkaline phosphatase reporter (SEAP), and the IRF pathway, by assessing the activity o f a secreted Lucia luciferase using QUANTI - Blue ™ Solution and QUANTI -Luc™ 4 Lucia/Gaussia (InvivoGen), respectively, as per manufacturer’s instructions. Pelleted cells were used for FACS analysis using IFNα/β R1 APC-conjugated antibody or isotype control (Biotechne, FAB245A and IC002A), or unstained staining procedure with and without Zombie GreenTM (Biolegend). Samples were analysed using CytoFlex LX (Beckman) (50,000 live cells per condition). Median fluorescence intensity for APC channel gated on single cell live cells was analysed and compared as a percentage to control (no stimulation condition). […]

[4] = test system: ISRE in THP-1 cells (TLR3 agonist polyI:C); test: THP-1 ISRE luciferase reporter, polyI:C stimulation; type: cell-based, human; conditions: polyI:C 1 µg/mL, 4 μM compound, 16 h
Experimental: as §6, §7, §8, §9, §10

[5] = test system: CXCL10 secretion in healthy PBMCs; test: Healthy PBMC CXCL10 ELISA, IFNα2-stimulated; type: cell-based, human
Experimental: PBMCs in vitro experiments
Peripheral blood mononuclear cells (PBMCs) from healthy and SSc donors were separated using density gradient method (Leucosep™, Greiner Bio-One International) from EDTA anticoagulated peripheral blood; isolated cells were washed twice by PBS. PBMCs were then incubated in RPMI1640 […]
For healthy PBMCs, cells were stimulated with 20 ng/mL of IFN (+/- compounds or DMSO). For SSc PBMCs, cells were in basal conditions with no additional IFN stimulation. Cells were centrifuged at 300 g for 10 minutes. Supernatant was removed and subjected to R&D Systems DY266 Human CXCL10/IP-10 DuoSet ELISA (Biotechne) in duplicates, according to manufacturer’s guidance. Concentration of CXCL10 was determined according to a 4-parameter

[6] = IFN + compound, three replicates
[7] = sgROSA cells, IFN 50 ng/ml, 5 μM, 90 min

Row | percentage of live cells [3] | Structure (SMILES) | IFNAR1 cell surface levels [1, 6] | IFNAR1 cell surface levels (Fig. 5g) [2] | ISRE luciferase signal in THP-1 supernatant [4] | CXCL10, healthy donor PBMCs (Fig. 6c) ([5]; Healthy donor HC1) | CXCL10, healthy donor PBMCs (Fig. 6c) ([5]; Healthy donor HC2) | CXCL10, healthy donor PBMCs (Fig. 6c) ([5]; Healthy donor HC3) | IFNAR1 cell surface levels [1, 7] | IFNAR1 cell surface levels [2]
1 | 98.52% | Cn1cc(NC(=O)c2c(Cl)cccc2Cl)c(C(=O)NC2CCN(C(=O)c3c(Cl)cccc3Cl)CC2)n1 [AP-5-145] | 50.5911 and 49.9799 and 55.4831 | 55.396 and 54.5623 and 54.7013 | 502.333 and 324.667 and 347.333 | 89.7308 | 123.351 | 106.128 | – | –
2 | 97.99% | O=C(NC1C2CNCC21)c1nn(C(=O)c2c(Cl)cccc2Cl)cc1NC(=O)c1c(Cl)cccc1Cl (stereo not shown) [FX-171-C] | 42.0302 and 41.4187 and 41.1741 | 49.6989 and 47.3367 and 48.4484 | 374 and 491 and 321 | 77.343 | 68.1378 | 64.5563 | reduction in IFNAR1 cell surface levels | not reduced
3 | 98.05% | O=C(NC1CCNCC1)c1nn(C(=O)c2c(Cl)cccc2Cl)cc1NC(=O)c1c(Cl)cccc1Cl [JMS-175-2] | 40.6849 and 39.7065 and 39.3396 | 50.1158 and 49.56 and 49.1431 | 486.333 and 543 and 491 | 63.2851 | 45.1027 | 43.5189 | reduction in IFNAR1 cell surface levels | not reduced
